{"source": "patent US8765783B2", "about": "“Pharmaceutical composition for treatment of disease due to vascular constriction or vasodilation” (Ono Pharmaceuticals Co., Ltd., priority 2002, dated 2014)", "key": {"[1]": {"system": "rat dural blood flow", "assay": "Decrease of dural blood flow induced by S1P", "assay_type": "in vivo", "conditions": "10 mg/kg through femoral vein; S1P 300 μg/kg into cisterna", "excerpt": "Rat (CD(SD)IGS, male, Charles River Japan Inc., 10 weeks old-13 weeks old, 450-520 g) was anesthetized by injection of urethane (1.2 g/kg, s.c.), placed in the femoral vein with catheter (polyethylene tube SP10; I.D. 0.28 mm, O.D. 0.61 mm: Natsume Seisakusho Co. Ltd.) for compounds administration, and then blood flow to brain through only vertebral artery was made to happen by tying both sides of common carotid arteries. Next, the scalp was cut open and the head region was exposed in order to measure dural blood flow and administer into cisterna. In addition, the trachea was placed with catheter (polyethylene tube; size 7.9: Hibiki) and it connected to the artificial respirator. The measurement of dural blood flow was performed to transmit with 1a ser light to skull using Moon Laser Doppler Imager (Moor LDI) [about 11cm distant from measuring object, about 150 dots both of XY measurement resolution, scanning about 2.8×2.8 cm area (150dots/2.8 cm)]. In addition, measurement condition involved in flux calculation (FLUX; relative value) such as sensitivity -gain etc., was integrated within all experiment. The images of blood flow were captured through the capture software, moor LDI Measurement V3.08, and image data was treated with analyzed software, moor LDI Image Processing V3.08. […]"}, "[2]": {"system": "SD rat", "assay": "Increase of rat blood pressure by S1P", "assay_type": "in vivo", "conditions": "anesthetized male SD rat, intraperitoneally injected", "procedure": "Male SD Rat (8 weeks old-10 weeks old) was anesthetized by injection of pentobarbital sodium (50 mg/mL/kg), after midline incision in the cervical region, trachea was exposed by exfoliation of tracheal muscle layer and cannula made of polyethylene was inserted into trachea. Next, catheter made of polyethylene was inserted into the common carotid artery and the common jugular vein. Catheter inserted into the common carotid artery was connected to the piezotransducer and the blood pressure was recorded on the recorder through strain compression amplifier. After the above mentioned operation was finished, in the case of the spinal chord was broken, the spinal chord was broken by insertion of stainless pole into the spinal chord cavity. After the spinal chord was broken, tracheal cannula was immediately connected into the artificial breathing device for small animals and artificial ventilation was performed under the conditions of a ventilatory volume 6 mL/kg and velocity 60 times/min. After then, S1P was administered and we confirmed blood pressure was increased. […] As a result, the compound (3) inhibited the increase of blood pressure by S1P."}}, "note": "“Also recorded” adds a separate entry of the source."}
{"smiles": "Cc1nn(C)c2nc(NNC(=O)Nc3cc(Cl)nc(Cl)c3)cc(C(C)C)c12", "note": "[compound (3), N-(2,6-dichloro-4-piridinyl)-2-(4-isopropyl-1,3-dimethyl-1H-pyrazolo[3,4-b]pyridin-6-yl)hydrazinecarboxamide]", "values": [{"measurement": "inhibition of decrease of dural blood flow by S1P", "setting": "[1]", "result": "inhibited; also recorded: suppression"}, {"measurement": "inhibition of the increase of blood pressure by S1P", "setting": "[2]", "result": "inhibited"}]}
